Source: US11219613B2, “Pharmaceutical composition for preventing and treating liver diseases, containing, as active ingredient, cromolyn or pharmaceutically acceptable salt thereof” (ONCOCROSS CO., LTD., priority 2015, dated 2022)
Where two headings read alike, the source gives them in different places.

Columns and labels:
primary hepatocytes [1] = assay: SA-β-gal (Senescence β-galactosidase) staining; type: cell-based, mouse; details: three days in vitro culture
Description: (§1) Further, the experiment on hepatocytes was conducted by isolating the primary hepatocyte from the liver of a male C57BL6 mouse of around 6 weeks old.
Since senescence is a typical phenomenon of fibrosis, the anti-senescence effect of cromolyn on hepatocytes was confirmed by using β-galactosidase staining, which is a senescence index.
SA-β-gal (Senescence β-galactosidase) staining was performed by using the Senescence β-Galactosidase Staining Kit (Biovision, USA) according to the method provided by the manufacturer. Specifically, after washing with PBS, the cells were fixed by 2% formaldehyde and 0.2% glutaraldehyde in PBS for 15 minutes at room temperature. The fixed cells were washed with PBS, and incubated together with X-gal staining solution for 24 hours at 37° C. The cells were visualized, and photographs were taken with the Zeiss PALM laser capture microdissection microscope (Zeiss, Germany).

HSC-T6 cell line [2] = test system: HSC-T6 cell line
Description: (§2) Specifically, while gradually increasing the amounts of cromolyn and ionomycin in an independent cell culture medium, the amount of LDH released into the above culture medium was measured, and the experiment was conducted by using a LDH cytotoxicity assay kit (Cayman Chemical, USA) according to the method provided by the manufacturer. First, the cells were grown in DMEM (Dulbecco's Modified Eagle Medium), to which 10% of heat inactivated fetal bovine serum and 1% of penicillin and streptomycin were added, at 37° C. and 5% CO2. Then, the above cells were seeded in a 96-well plate at a density of 2×10^4/well. Cromolyn and ionomycin were added thereto in increasing amounts. After 48 hours, 100 μL of the supernatant from each well was transferred to the new plates, 100 μL of the reaction solution was added to each well, the plate was incubated with gentle shaking on an orbital shaker for 30 minutes at the room temperature, and then the absorbance was measured at 490 nm with a plate reader.

LX-2 cell line [3] = test system: LX-2 cell line
Description: as §2

LX2 cell line = assay: MTT assay, cell proliferation; type: cell-based; details: for effect on proliferation at low level: LX2, 0.1 μM; for proliferation activity: LX2, increasing levels, compared to untreated control
Description: (§3) To confirm the proliferation activity on hepatic stellate cells, a MTT (3-(4,5-dimethylthiazol-2-yl)-2,5-diphenyltetrazolium bromide) assay was performed, and the HSC-T6 and LX2 cell lines obtained from <Example 1> above were used as hepatic stellate cells.
(§4) Specifically, the MTT assay was performed by seeding the cell suspensions of each cell onto a 96-well plate at a density of 5×10^4 cells/well. Then, the MIT stock solution (5 mg/mL) in which MTT was dissolved in PBS (phosphate-buffered saline, pH 7.2) was prepared, and 15 μL of the MTT solution was added to each well after filtration. After culturing for 4 hours at 37° C. and 5% CO2, the reaction was terminated by adding 185 μL of solubilization solution to each well, and then the cell viability was measured at an absorbance of 620 nm using an ELISA (enzyme-linked immunosorbent assay) reader. Furthermore, cell viability was measured by calculating the ratio of absorbance of the cells treated/untreated with the candidate agents.

HSC-T6 cell line [4] = assay: MTT assay, cell proliferation; type: cell-based; details: for effect on proliferation at low level: HSC-T6, 0.1 μM; for proliferation activity: HSC-T6, increasing levels, compared to untreated control
Description: as §3, §4

primary hepatocytes [5] = assay: wound assay, cell motility; type: cell-based, mouse
Description: as §1
The effect of cromolyn on restoration in hepatocytes was verified. […] Therefore, the present inventors confirmed the motility of primary hepatocytes by treating cromolyn in the presence and absence of TGF-β, which induces EMT.
(§5) Specifically, cell motility according to treatment with cromolyn was analyzed by using the known wound assay in the presence and absence of TGF-β (2 ng/mL), and the healing distance of the wound was measured by […]. Further, after treating with TGF-β and cromolyn, changes in the E-cadherin expression was verified, which was confirmed by treating primary hepatocytes with TGF-β (Carl Bio Chem, USA) and then conducting Western Blots using the antibody against E-cadherin (H-180) (Santa Cruz, USA). In addition, tubulin was used as the loading control.

HSC-T6 cell line [6] = assay: TGF-β production by ELISA; type: cell-based; details: HSC-T6, different concentrations
Description: (§6) To confirm whether cromolyn inhibits the production of TGF-β and the accumulation of collagen, which are known as the major secretion marker of activated HSCs, LX-2 and HCT-T6 cell lines were analyzed by ELISA.

LX-2 cell line [7] = assay: TGF-β production by ELISA; type: cell-based; details: LX-2, different concentrations
Description: as §6

[8] = test system: E-cadherin in primary hepatocytes; assay: E-cadherin expression by Western Blots; type: cell-based, mouse; details: primary hepatocytes treated with TGF-β
Description: as §1, §5

HSC-T6 cell line [9] = assay: Sirius Red total collagen detection; type: cell-based; details: HSC-T6, increasing level, 48 hours
Description: (§7) To confirm whether cromolyn inhibits the production of TGF-β and the accumulation of collagen, which are known as the major secretion marker of activated HSCs, LX-2 and HCT-T6 cell lines were analyzed by ELISA. Specifically, collagen was detected by using the Sirius Red Total Collagen Detection Kit (Chondrex, USA). The suspended cells were seeded in a 24-well plate at a density of 1×10^4 cells/well, and treated with various amounts of cromolyn for 48 hours. Then, the diluted solutions or standard samples were added to 1.5-mL centrifuge tubes in duplicate. Subsequently, each tube was incubated for 20 minutes at room temperature together with 500 μl of the Sirius Red solution. The supernatant was removed, the tubes were washed twice, and 200 μL of the final supernatant was transferred to a 96-well plate. The optical density was measured at 510-550 nm.

LX-2 cell line [10] = assay: Sirius Red total collagen detection; type: cell-based; details: LX-2, increasing level, 48 hours
Description: as §7

Structure (SMILES): O=C(O)c1cc(=O)c2c(OCC(O)COc3cccc4oc(C(=O)O)cc(=O)c34)cccc2o1 [cromolyn, cromoglicic acid]
- number of β-galactosidase-positive cells (primary hepatocytes [1]): decrease in a concentration-dependent manner
- cytotoxicity (LDH release) (HSC-T6 cell line [2]; rat, 48 h): no cytotoxicity except at the high level (10 μM)
- cytotoxicity (LDH release) (LX-2 cell line [3]; human, 48 h): no cytotoxicity except at the high level (10 μM)
- effect on proliferation at low level (LX2 cell line): anti-proliferation effect was confirmed
- proliferation activity (LX2 cell line): decrease
- effect on proliferation at low level (HSC-T6 cell line [4]): did not show a significant effect
- proliferation activity (HSC-T6 cell line [4]): decrease
- motility of hepatocytes (primary hepatocytes [5]; absence of TGF-β, compared to untreated control): did not show a significant difference
- inhibition of migration activity of hepatocytes in terms of migration distance (primary hepatocytes [5]; presence of TGF-β (2 ng/mL), 48 hours): 15%
- production of TGF-β (HSC-T6 cell line [6]): inhibit the production of TGF-β in a concentration-dependent manner
- production of TGF-β (LX-2 cell line [7]): inhibit the production of TGF-β in a concentration-dependent manner
- expression of E-cadherin [8]: significantly inhibit the decrease in the expression of E-cadherin in a concentration-dependent manner
- released collagen (HSC-T6 cell line [9]): significantly decreases
- released collagen (LX-2 cell line [10]): significantly decreases

Structure (SMILES): C[C@H](CCC(=O)O)C[C@H](C)C[C@H](C)C(=O)/C=C(\O)[C@H](C)C[C@H](C)C/C=C/[C@@H](C)[C@@H](O)[C@@H](C)[C@@H](O)C[C@@H]1CC[C@@](C)([C@H]2CC[C@@](C)([C@@H](C)O)O2)O1 [ionomycin]
- cytotoxicity (LDH release) (HSC-T6 cell line [2]; HSC-T6, increasing amounts, 48 hours (FIG. 2C)): induce cell death in a concentration dependent manner
- cytotoxicity (LDH release) (LX-2 cell line [3]; LX-2, increasing amounts, 48 hours (FIG. 2D)): induce cell death in a concentration dependent manner
- effect on proliferation at low level (LX2 cell line): anti-proliferation effect was confirmed
- proliferation activity (LX2 cell line): decrease
- effect on proliferation at low level (HSC-T6 cell line [4]): did not show a significant effect
- proliferation activity (HSC-T6 cell line [4]): decrease
